One compound from patent publication US20040077720A1, “Inhibition of antibody production employing perfluorooctanoic acid or derivatives thereof” (priority 2002, published 2004) can be followed below.

“Also recorded” adds a separate entry of the source.

Assay [1] concerns horse erythrocytes. The experiment in a line: Immunization with horse erythrocytes after treatment; antibody response. It is filed as in vivo. Particulars: mice treated, then immunized with horse erythrocytes. An excerpt: (§1) By inhibiting antibody production, this substance also prevents the formation of immunocomplexes. These treated animals appear completely normal, without joint deterioration, lymphocyte proliferation, dermal vasculitis or immunocomplex-mediated glomerulonephritis.

The subject of assay [2] is MRL/MpJ-Tnfrsf6^1pr-Mice. The experiment in a line: Treatment of MRL/MpJ-Tnfrsf6 lpr mice (spontaneous SLE-like autoimmune syndrome); clinical observation, urine, autopsy. It is filed as in vivo. From the text:
As the experimental animal model for studies of inhibition of disease development and the underlying mechanism(s), Applicants have employed MRL-Tnfrs6/1 pr mice, which spontaneously develop high levels of a wide range of antibodies and an SLE-like syndrome, including severe lymphoadrenopathy. The MRL-mouse strain is known to develop a severe autoimmune disease syndrome. In fact, it is known to develop the most severe disease state. Highs levels of circulating autoantibodies, immunocomplexes mediated glomerulonephritis, arthritis and vasculitis are observed. The mice also develop a heavy proliferation of lymph nodes.
(§2) The presence of circulating immunocomplexes is analyzed indirectly by continuous monitoring of the levels of protein, hemoglobin and erythrocytes in the urine of these animals, the quantities of which are directly related to the severity of the immunocomplex-mediated glomerulonephritis which develops. […] The effectiveness of a low dose of the substance and 100% reproducibility argue for a direct inhibition of the mechanism(s) underlying development of the disease.
The symptoms which these mice develop include deterioration of joints and consequent motor difficulties, kidney damage with resulting uremia (retention of fluid) and extreme lymphoadenopathy. This lymphoadenopathy arises from defects in the FAS antigen gene resulting from the lymphoproliferation (1 pr) mutation in MRL-mice. In the final stages of their disease these animals also develop dermal vasculitis. 100% of these mice develop these symptoms.
The degree of renal damage can be monitored on the basis of the level of protein, erythrocytes, hemoglobin and hyalin cylinders in the urine. Lymphocyte proliferation can be assessed from the growth of lymph nodes in the shoulders and groin, as well as along the aorta. Blood and tissue samples are collected for analysis and histopathological examination.
Animal Model: MRL/MpJ-Tnfrsf6^1pr-Mice
This strain develops spontaneous systemic lupus erythematosus-like autoimmune syndrome at or about 8 weeks of age. The syndrome is characterized by massive lymphadenopathy, immune complex glomerulonephritis, arthritis, high level of circulating antibodies, and vasculitis.
Compounds A and B were tested. Compound A was a reference compound and compound B was PFOA. Treatment was initiated at the age of 5 and 8 weeks, respectively. All animals received the respective compounds on a daily basis. A control group of mice without treatment was run in parallel. The following parameters were screened.
2. Investigation of urine sediment.
3. Monitoring of proteinuria.
Parameters followed during the study: 1) Clinical observation; 2) Urine: light microscopy, proteinuria. The following organs were sampled: thymus, lymph nodes, kidney, liver, and spleen. The organs were investigated by histopathology and immunohistopathology.

Assay [3] has as its system MRL/MpJ-Tnfrsf6^1pr-Mice. The experiment in a line: Withdrawal study in treated MRL mice. It is filed as in vivo. As to the method:
as §2, §1
In a separate study compound B was withdrawn from mice treated during 23-26 weeks. The mice were followed for up to 39-42 weeks.

The test system of assay [4] is thymus and spleen. The experiment in a line: Laboratory studies: thymus and spleen. Also noted: species or system rodent. Particulars: in vivo. From the text: PFOA belongs to a group of chemicals that induce peroxisome proliferation in the liver in rodent. […] These initial observations led to the inventors' discovery that PFOA could interfere with the immune system, and that PFOA could express immunosuppressive properties.

Where [5] appears, read: daily treatment started at age 5 or 8 weeks.
[6] abbreviates: mouse, in vivo, listed as perfluorooctanoic acid.

As to `O=C(O)C(F)(F)C(F)(F)C(F)(F)C(F)(F)C(F)(F)C(F)(F)C(F)(F)F` [Compound B, Perfluorooctanoic acid], in assay [1], the “antibody response to foreign antigens” value is on record as “no antibody response”. In addition, the anasarca result in assay [2] (at autopsy) was “no anasarca was detected”. Besides, the survival rate result in assay [2] (compared to control group and compound A treated mice) is recorded as “clear-cut increase of survival rate”. In addition, in assay [2] (setting [5]), the body weight result was “No body weight gain” and the enlarged lymph nodes result is listed as “No”. Moreover, in assay [2] (mouse, in vivo), the “clinical observation: activity / movement” value is recorded as “very active”, the fur entry is recorded as “normal fur”, the lymphadenopathy entry is on record as “No lymphadenothapy was observed” and the ulcers entry is on record as “No ulcers were observed”. Also, the “signs / symptoms of disease during treatment” value in assay [2] (mouse, in vivo, listed as compound B) is reported as “did not develop any signs of disease”. The “signs / symptoms of disease during treatment” value in assay [2] (setting [6]) is recorded as “none of these disease symptoms are observed”. The proteinuria entry in assay [2] (urine, daily treatment started at age 5 or 8 weeks) is recorded as “No”. Besides, the “disease symptoms when treatment is terminated / substance withdrawn” value in assay [3] (setting [6]) is “the animals develop disease symptoms; also recorded: the mice begin to develop typical disease symptoms”. In addition, the “time after withdrawal at which proteinuria was observed” value in assay [3] (treated during 23-26 weeks) stood at 5 weeks. Moreover, in assay [3] (treated during 23-26 weeks, followed up to 39-42 weeks), the weight after withdrawal entry is reported as “an increase in weight was observed”. Besides, in assay [3] (treated during 23-26 weeks, followed up to the 42 week point), the “clinical symptoms after withdrawal” value is given as “no sign of symptoms were observed”. Besides, the thymus and spleen result in assay [4] was “a reduction of thymus and spleen was observed”.
